Data from US12453709B2, “Compositions and methods for treating autism” (priority 2013, dated 2025).

System: male patients diagnosed with autism
Assay: Study HT 02-121: Social Responsiveness Scale (SRS-2)
Assay type: in vivo, human
Details: for SRS-2 Total T-Score: patients changing category of severity: placebo 2; for SRS-2 DSM-5 Social, Communication and Interaction T-score: patients with changes in severity categorization / SRS-2 Social Communication T-score: patients with categorical improvement / SRS-2 Social Motivation T-score: patients with categorical changes in clinical severity: placebo 3
Method: This clinical study was a randomized double-blind, placebo-controlled two-cohort, 4-week dose-escalation study that incorporated two open-label treatment groups to assess the safety and efficacy of L1-79 100 mg and 200 mg TID in male patients between the ages of […] years of age diagnosed with autism. The first cohort of 20 patients was comprised of three groups of patients: The first group of five patients received open-label L1-79 100 mg TID and underwent PK and EKG assessments. The remaining two groups in this cohort consisted of 15 patients randomized on a 2:1 basis to receive L1-79 100 mg TID or placebo. The PK and safety data from the open-label L1-79 100 mg TID group was submitted to FDA for review and acceptance before the second cohort was enrolled. The second cohort was procedurally identical to the first. The second cohort of 20 patients was comprised of the same three groups of patients but a dose of 200 mg TID was used instead of 100 mg TID. The key inclusion criteria were as follows: (1) males between 13 and 21 years of age, (2) DSM-5 compliant diagnosis of autism spectrum disorder, confirmed by the Autistic Diagnosis Interview Review (ADIR), and by an ADOS-2 score consistent with a diagnosis of autism, (3) must have been stable on no more than one concomitant medication and no planned changes in psychosocial interventions during the study.
The primary efficacy endpoint was the determination of the clinical improvement by the investigator as documented by the Clinical Global Impression (CGI) rating scales. Additional efficacy endpoints included: (1) changes from baseline in the Socialization and Communication Domains of the Vineland Adaptive Behavior Scales, Second Edition (VABS II) parent/caregiver rating form, (2) changes from baseline in the ADOS-2 Total Score and subscores, (3) changes in the Social Responsiveness Scale, Second Edition (SRS-2) Total Score and subscales, (4) changes in the ABC-C domains, (5) changes in the Repetitive Behavior Scale-Revised (RBS-R) Total Score and subscales. Given the exploratory design of this study only descriptive statistics were planned.
In the preliminary study, all forms were completed at the study site in the presence of the investigator. In Cohort 1 of the present study, the VABS-II, SRS-2, ABC-C and RBS-R were filled out at home by the patient/patient's families prior to treatment visits and returned at treatment visits in order to expedite the execution of the study.
This definition is consistent with accepted standards for judging mid and long term outcomes for experimental treatments studied in nearly every disorder, including autism. […] In ASD, children often go through periods of mild to moderate improvement or worsening in their behavioral, social and emotional symptom regulation related to a variety of identifiable and as yet unidentified factors (Boso, 2010; Jyonouchi, 2011). Thus, in a study of short duration, a ‘baseline’ measure may in fact be at the apex, midpoint or nadir of one of these oscillations.
The Social Communication and Interaction scale are comprised of the DSM-5 criteria that make up the social communication and social interaction deficits required for the diagnosis of ASD.

CC(N)(Cc1ccc(O)cc1)C(=O)O (racemic) [L1-79, α-methyl-DL-tyrosine]
SRS-2 Total T-Score: patients changing category of severity (100 mg group): 2 patients | SRS-2 DSM-5 Social, Communication and Interaction T-score: patients with changes in severity categorization (100 mg group): 2 patients | SRS-2 Social Communication T-score: patients with categorical improvement (100 mg group): 3 patients | SRS-2 Social Motivation T-score: patients with categorical changes in clinical severity (100 mg group): 4 patients | SRS-2 Total T-Score: patients changing category of severity (200 mg group): 3 patients | SRS-2 DSM-5 Social, Communication and Interaction T-score: patients with changes in severity categorization (200 mg group): 4 patients | SRS-2 Social Communication T-score: patients with categorical improvement (200 mg group): 4 patients | SRS-2 Social Motivation T-score: patients with categorical changes in clinical severity (200 mg group): 6 patients | SRS-2 DSM-5 Restricted and Repetitive Behavior T-score Mean Change from Baseline (DB 100 mg TID, Week 4/LOCF): −0.4 | SRS-2 DSM-5 Restricted and Repetitive Behavior T-score Treatment effect versus placebo (DB 100 mg TID, Week 4/LOCF): 7.2 | SRS-2 DSM-5 Restricted and Repetitive Behavior T-score change, median (DB 100 mg TID, Week 4/LOCF): −3, 0, 5 | SRS-2 DSM-5 Social, Communication and Interaction T-score Mean Change from Baseline (DB 100 mg TID, Week 4/LOCF): 0.6 | SRS-2 DSM-5 Social, Communication and Interaction T-score Treatment effect versus placebo (DB 100 mg TID, Week 4/LOCF): 4.8 | SRS-2 DSM-5 Social, Communication and Interaction T-score change, median (DB 100 mg TID, Week 4/LOCF): −3, 2, 5 | SRS-2 Social Communication T-score Mean Change from Baseline (DB 100 mg TID, Week 4/LOCF): 1.1 | SRS-2 Social Communication T-score Treatment effect versus placebo (DB 100 mg TID, Week 4/LOCF): 6.0 | SRS-2 Social Communication T-score change, median (DB 100 mg TID, Week 4/LOCF): −5, 0, 6 | SRS-2 Social-Motivation T-score Mean Change from Baseline (DB 100 mg TID, Week 4/LOCF): −1.4 | SRS-2 Social-Motivation T-score Treatment effect versus placebo (DB 100 mg TID, Week 4/LOCF): 0.3 | SRS-2 Social-Motivation T-score change, median (DB 100 mg TID, Week 4/LOCF): −7, −4, 8 | SRS-2 Total T-score Mean Change from Baseline (DB 100 mg TID, Week 4/LOCF): −0.4 | SRS-2 Total T-score Treatment effect versus placebo (DB 100 mg TID, Week 4/LOCF): 4.8 | SRS-2 Total T-score change, median (DB 100 mg TID, Week 4/LOCF): −3, −1, 3 | SRS-2 DSM-5 Restricted and Repetitive Behavior T-score Mean Change from Baseline (DB 200 mg TID, Week 4/LOCF): −7.6 | SRS-2 DSM-5 Restricted and Repetitive Behavior T-score Treatment effect versus placebo (DB 200 mg TID, Week 4/LOCF): −0.0 | SRS-2 DSM-5 Restricted and Repetitive Behavior T-score change, median (DB 200 mg TID, Week 4/LOCF): −22, −3, 3 | SRS-2 DSM-5 Social, Communication and Interaction T-score Mean Change from Baseline (DB 200 mg TID, Week 4/LOCF): −7.6 | SRS-2 DSM-5 Social, Communication and Interaction T-score Treatment effect versus placebo (DB 200 mg TID, Week 4/LOCF): −3.4 | SRS-2 DSM-5 Social, Communication and Interaction T-score change, median (DB 200 mg TID, Week 4/LOCF): −18, −3, 0 | SRS-2 Social Communication T-score Mean Change from Baseline (DB 200 mg TID, Week 4/LOCF): −8.3 | SRS-2 Social Communication T-score Treatment effect versus placebo (DB 200 mg TID, Week 4/LOCF): −3.4 | SRS-2 Social Communication T-score change, median (DB 200 mg TID, Week 4/LOCF): −16, −4, −1 | SRS-2 Social-Motivation T-score Mean Change from Baseline (DB 200 mg TID, Week 4/LOCF): −10.6 | SRS-2 Social-Motivation T-score Treatment effect versus placebo (DB 200 mg TID, Week 4/LOCF): −8.9 | SRS-2 Social-Motivation T-score change, median (DB 200 mg TID, Week 4/LOCF): −21, −6, 0 | SRS-2 Total T-score Mean Change from Baseline (DB 200 mg TID, Week 4/LOCF): −7.7 | SRS-2 Total T-score Treatment effect versus placebo (DB 200 mg TID, Week 4/LOCF): −2.5 | SRS-2 Total T-score change, median (DB 200 mg TID, Week 4/LOCF): −19, 3, 0 | average improvement of SRS-2 Total, DSM-5 Social Communication and Interaction, Social Communication and Social Motivation T-scores (L1-79 200 mg treated group): ~8 points | SRS-2 T-scores: magnitude and number/percent of responders compared to placebo (L1-79 200 mg, Week 4/LOCF): greater
